Experimental data published in US20250346593A1, “IMIDAZO(1,2-1)PYRIDINE DERIVATIVES AS RIPK2 INHIBITORS” (Interline Therapeutics, Inc., priority 2022, published 2025).
Read-outs that look alike come from different tables or passages of the source.

Tests used:
[1] = target: GST-RIPK2 fusion protein (human RIPK2 amino acids 1-310) (Homo sapiens (Human), UniProt O43353); assay: RIPK2 binding competition assay (TR-FRET, Tracer 199)
[2] = test system: NF-κB pathway (SEAP) in THP1-Dual cells; assay: THP-1 Dual cell SEAP assay (L18-MDP stimulated); assay type: cell-based; conditions: read-out: NFkB THP1 IC50
[3] = read-out: RIPK2 IC50, RIPK2 binding competition assay

GST-RIPK2 fusion protein (human RIPK2 amino acids 1-310), sequence (O43353 1-310): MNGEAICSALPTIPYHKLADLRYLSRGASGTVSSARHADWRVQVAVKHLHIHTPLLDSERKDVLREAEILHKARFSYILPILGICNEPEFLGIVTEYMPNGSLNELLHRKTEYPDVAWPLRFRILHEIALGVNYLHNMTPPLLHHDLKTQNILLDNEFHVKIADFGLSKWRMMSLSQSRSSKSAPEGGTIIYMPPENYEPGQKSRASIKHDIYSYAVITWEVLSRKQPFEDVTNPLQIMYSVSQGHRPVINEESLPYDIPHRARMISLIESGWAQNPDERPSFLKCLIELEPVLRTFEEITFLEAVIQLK

| SMILES | IC50 [1] | IC50 ([2]; Homo sapiens, THP1-Dual) | other results |
| --- | --- | --- | --- |
| COc1cc2ncc(-c3cc(F)nc(NCCC(C)O)c3)n2cc1S(=O)(=O)C(C)(C)C (racemic) [Example 190, rac-4-((4-(6-(tert-butylsulfonyl)-7-methoxyimidazo[1,2-a]pyridin-3-yl)-6-fluoropyridin-2-yl)amino)butan-2-ol] | < 1 nM | – | – |
| COc1cc2ncc(-c3cc(F)nc(N[C@@H]4CC[C@H](O)C4)c3)n2cc1S(=O)(=O)C(C)(C)C (racemic) [Example 192, rac-(1R,3S)-3-((4-(6-(tert-butylsulfonyl)-7-methoxyimidazo[1,2-a]pyridin-3-yl)-6-fluoropyridin-2-yl)amino)cyclopentan-1-ol] | < 1 nM | < 50 nM | – |
| COc1cc2ncc(-c3cc(F)nc(N[C@@H]4CC[C@@H](O)C4)c3)n2cc1S(=O)(=O)C(C)(C)C (racemic) [Example 197, rac-(1R,3R)-3-((4-(6-(tert-butylsulfonyl)-7-methoxyimidazo[1,2-a]pyridin-3-yl)-6-fluoropyridin-2-yl)amino)cyclopentan-1-ol] | 1 to 2.5 nM | < 50 nM | – |
| COc1cc2ncc(-c3cc(F)nc(N[C@@H]4CCC[C@@H](O)C4)c3)n2cc1S(=O)(=O)C(C)(C)C (racemic) [Example 205, rac-(1R,3R)-3-((4-(6-(tert-butylsulfonyl)-7-methoxyimidazo[1,2-a]pyridin-3-yl)-6-fluoropyridin-2-yl)amino)cyclohexan-1-ol] | 1 to 2.5 nM | 50 to 250 nM | – |
| COc1cc2ncc(-c3cc(F)nc(NC4CCCC[C@H]4O)c3)n2cc1S(=O)(=O)C(C)(C)C (mixture of isomers) [Example 225, (1R,2R & 1S,2S)-2-((4-(6-(tert-butylsulfonyl)-7-methoxyimidazo[1,2-a]pyridin-3-yl)-6-fluoropyridin-2-yl)amino)cyclohexan-1-ol] | 2.5 to 20 nM | 250 to 1000 nM | – |
| CCOc1cc2ncc(-c3cc(F)nc(NCCC(O)CC)c3)n2cc1S(=O)(=O)C(C)C (racemic) [Example 246, Rac-1-({4-[7-ethoxy-6-(propane-2-sulfonyl)imidazo[1,2-a]pyridin-3-yl]-6-fluoropyridin-2-yl}amino)pentan-3-ol] | < 1 nM | < 50 nM | – |
| COc1cc2ncc(-c3cc(F)nc(NCCC(C)O)c3)n2cc1S(=O)(=O)C(C)(C)C (single isomer, unassigned) [Example 169, 4-((4-(6-(tert-butylsulfonyl)-7-methoxyimidazo[1,2-a]pyridin-3-yl)-6-fluoropyridin-2-yl)amino)butan-2-ol] | < 1 nM | < 50 nM | – |
| COc1cc2ncc(-c3cc(F)nc(NCCC(C)O)c3)n2cc1S(=O)(=O)C(C)(C)C (single isomer, unassigned) [Example 170, 4-((4-(6-(tert-butylsulfonyl)-7-methoxyimidazo[1,2-a]pyridin-3-yl)-6-fluoropyridin-2-yl)amino)butan-2-ol] | – | – | IC50 [2]: < 50 nM; IC50 [1, 3]: < 1 nM |
| COc1cc2ncc(-c3cc(F)nc(NC[C@@H]4CCNC(=O)C4)c3)n2cc1S(=O)(=O)C(C)(C)C (single isomer, unassigned) [Example 238, (4R or S)-4-[({6-fluoro-4-[7-methoxy-6-(2-methylpropane-2-sulfonyl)imidazo[1,2-a]pyridin-3-yl]pyridin-2-yl}amino)methyl]pi peridin-2-one] | 1 to 2.5 nM | 50 to 250 nM | – |
| COc1cc2ncc(-c3ccnc(F)c3)n2cc1S(=O)(=O)C(C)(C)C [Example 5, 6-(tert-butylsulfonyl)-3-(2-fluoropyridin-4-yl)-7-methoxyimidazo[1,2-a]pyridine] | 2.5 to 20 nM | – | – |
| COc1cc2ncc(-c3ccnc(N)c3)n2cc1S(=O)(=O)C(C)(C)C [Example 11, 4-[7-methoxy-6-(2-methylpropane-2-sulfonyl)imidazo[1,2-a]pyridin-3-yl]pyridin-2-amine] | – | 250 to 1000 nM | – |
| COc1cc2ncc(-c3cc(C)nc(F)c3)n2cc1S(=O)(=O)C(C)(C)C [Example 12, 2-fluoro-4-[7-methoxy-6-(2-methylpropane-2-sulfonyl)imidazo[1,2-a]pyridin-3-yl]-6-methylpyridine] | 2.5 to 20 nM | – | – |
| COc1ccc(-c2cnc3cc(OC)c(S(=O)(=O)C4CC4)cn23)cc1N [Example 33, 5-(6-(cyclopropylsulfonyl)-7-methoxyimidazo[1,2-a]pyridin-3-yl)-2-methoxyaniline] | – | – | IC50 [1, 3]: > 20 nM |
| COc1ccc(-c2cnc3cc(OC)c(S(=O)(=O)C(C)(C)C)cn23)cc1F [Example 63, 6-(tert-butylsulfonyl)-3-(3-fluoro-4-methoxyphenyl)-7-methoxyimidazo[1,2-a]pyridine] | 2.5 to 20 nM | – | – |
| COc1cc2ncc(-c3ccc(N)c(C#N)c3)n2cc1S(=O)(=O)C(C)(C)C [Example 70, 2-amino-5-(6-(tert-butylsulfonyl)-7-methoxyimidazo[1,2-a]pyridin-3-yl)benzonitrile] | 2.5 to 20 nM | – | – |
| COc1cc2ncc(-c3ccc(O)cc3)n2cc1S(=O)(=O)C(C)(C)C [Example 149, 4-(6-(tert-butylsulfonyl)-7-methoxyimidazo[1,2-a]pyridin-3-yl)phenol] | – | 250 to 1000 nM | – |

| SMILES | IC50 [1] | IC50 ([2]; Homo sapiens, THP1-Dual) | other results |
| --- | --- | --- | --- |
| COc1cc2ncc(-c3cc(Cl)ncc3C)n2cc1S(=O)(=O)C(C)(C)C [Example 159, 6-(tert-Butylsulfonyl)-3-(2-chloro-5-methylpyridin-4-yl)-7-methoxyimidazo[1,2-a]pyridine] | – | – | IC50 [1, 3]: > 20 nM |
| CC(C)(C)S(=O)(=O)c1ccc2ncc(-c3cc(F)nc(NCCC4(O)CC4)c3)n2c1 [Example 172, 1-(2-((4-(6-(tert-butylsulfonyl)imidazo [1,2-a]pyridin-3-yl)-6-fluoropyridin-2-yl)amino)ethyl)cyclo-propan-1-ol] | 1 to 2.5 nM | – | – |
| CC(C)(C)S(=O)(=O)c1ccc2ncc(-c3cc(F)nc(NCCCO)c3)n2c1 [Example 173, 3-((4-(6-(tert-butylsulfonyl)imidazo [1,2-a]pyridin-3-yl)-6-fluoropyridin-2-yl)amino)propan-1-ol] | 2.5 to 20 nM | – | – |
| COc1cc2ncc(-c3cc(F)nc(NC4CC4)c3)n2cc1S(=O)(=O)C(C)(C)C [Example 177, 4-(6-(tert-butylsulfonyl)-7-methoxyimidazo[1,2-a]pyridin-3-yl)-N-cyclopropyl-6-fluoropyridin-2-amine] | – | – | IC50 [1, 3]: < 1 nM |
| COc1cc2ncc(-c3cc(F)nc(NCCC4(O)CCC4)c3)n2cc1S(=O)(=O)C(C)(C)C [Example 187, 1-(2-((4-(6-(tert-butylsulfonyl)-7-methoxyimidazo[1,2-a]pyridin-3-yl)-6-fluoropyridin-2-yl)amino)ethyl)cyclo-butan-1-ol] | – | – | IC50 [1, 3]: < 1 nM |
| COc1cc2ncc(-c3cc(F)nc(NCCC(C)(C)O)c3)n2cc1S(=O)(=O)C(C)(C)C [Example 189, 4-((4-(6-(tert-butylsulfonyl)-7-methoxyimidazo[1,2-a]pyridin-3-yl)-6-fluoropyridin-2-yl)amino)-2-methylbutan-2-ol] | – | – | IC50 [1, 3]: < 1 nM |
| COc1cc2ncc(-c3cc(F)nc(NC4CC(O)C4)c3)n2cc1S(=O)(=O)C(C)(C)C (stereo not shown) [Example 191, (1s,3s)-3-((4-(6-(tert-butylsulfonyl)-7-methoxyimidazo[1,2-a]pyridin-3-yl)-6-fluoropyridin-2-yl)amino)cyclobutan-1-ol] | – | < 50 nM | – |
| COc1cc2ncc(-c3cc(F)nc(N[C@H]4C[C@@H](O)C4)c3)n2cc1S(=O)(=O)C(C)(C)C [Example 191, (1s,3s)-3-((4-(6-(tert-butylsulfonyl)-7-methoxyimidazo[1,2-a]pyridin-3-yl)-6-fluoropyridin-2-yl)amino)cyclobutan-1-ol] | < 1 nM | – | – |
| COc1cc2ncc(-c3cc(F)nc(NC4CCC(O)CC4)c3)n2cc1S(=O)(=O)C(C)(C)C (stereo not shown) [Example 204, (1r,4r)-4-((4-(6-(tert-butylsulfonyl)-7-methoxyimidazo[1,2-a]pyridin-3-yl)-6-fluoropyridin-2-yl)amino)cyclohexan-1-ol] | – | 50 to 250 nM | – |
| COc1cc2ncc(-c3cc(F)nc(N[C@H]4CC[C@H](O)CC4)c3)n2cc1S(=O)(=O)C(C)(C)C [Example 204, (1r,4r)-4-((4-(6-(tert-butylsulfonyl)-7-methoxyimidazo[1,2-a]pyridin-3-yl)-6-fluoropyridin-2-yl)amino)cyclohexan-1-ol] | 1 to 2.5 nM | – | – |
| COc1cc2ncc(-c3cc(F)nc(N4CC5(C4)CC(O)(C(F)(F)F)C5)c3)n2cc1S(=O)(=O)C(C)(C)C [Example 217, 2-{6-fluoro-4-[7-methoxy-6-(2-methylpropane-2-sulfonyl)imidazo[1,2-a]pyridin-3-yl]pyridin-2-yl}-6-(trifluoromethyl)-2-azaspiro[3.3]heptan-6-ol] | 2.5 to 20 nM | – | – |
| COc1cc2ncc(-c3cc(F)nc(N4CC5(CC(O)C5)C4)c3)n2cc1S(=O)(=O)C(C)(C)C [Example 218, 2-{6-fluoro-4-[7-methoxy-6-(2-methylpropane-2-sulfonyl)imidazo[1,2-a]pyridin-3-yl]pyridin-2-yl}-2-azaspiro[3.3]heptan-6-o1] | 2.5 to 20 nM | – | – |
| COc1cc2ncc(-c3cc(F)nc(N[C@H]4C[C@H](OC)C4)c3)n2cc1S(=O)(=O)C(C)(C)C [Example 219, 6-fluoro-4-[7-methoxy-6-(2-methylpropane-2-sulfonyl)imidazo[1,2-a]pyridin-3-yl]-N-[(trans)-3-methoxycyclobutyl] pyridin-2-amine] | 1 to 2.5 nM | – | – |
| COc1cc2ncc(-c3cc(F)nc(N[C@H]4C[C@@H](OC)C4)c3)n2cc1S(=O)(=O)C(C)(C)C [Example 220, 6-fluoro-4-[7-methoxy-6-(2-methylpropane-2-sulfonyl)imidazo[1,2-a]pyridin-3-yl]-N-[cis-3-methoxycyclobutyl] pyridin-2-amine] | 1 to 2.5 nM | – | – |
| CC(C)(C)S(=O)(=O)c1ccn2ncc(-c3ccc(NCCCO)nc3F)c2c1 [Example 297, 3-((5-(5-(tert-butylsulfonyl)pyrazolo[1,5-a]pyridin-3-yl)-6-fluoropyridin-2-yl)amino)propan-1-ol] | – | – | IC50 [1, 3]: > 20 nM |
| COc1cc2ncc(-c3cc(F)nc(NCCCNC(C)=O)c3)n2cc1S(=O)(=O)C(C)(C)C [Example 318, N-[3-({6-fluoro-4-[7-methoxy-6-(2-methylpropane-2-sulfonyl)imidazo [1,2-a]pyridin-3-yl]pyridin-2-yl}amino)propyl] acetamide] | 1 to 2.5 nM | – | – |
